Data published in patent US20260272925A1, “CDK2 MODULATORS, COMPOSITIONS, AND METHODS OF USE THEREOF” (Type6 Therapeutics, Inc., priority 2023, published 2026).

Biological target: T1, Cdk2(2-298) (Homo sapiens, UniProt P24941)
T1 construct: Biotinylated N-terminal avi-tagged Cdk2(2-298) or Cdk1(1-297) was immobilized
Assay: Surface Plasmon Resonance (SPR), Biacore 8K, compound interaction with immobilized kinase
Type: binding
Conditions: biotinylated N-terminal avi-tagged protein on Chip SA, single-cycle kinetics (SCK, "S") mode, 1% DMSO, pH 7.5, read-out: Activity rating* (KD)
Description: Surface Plasmon Resonance (SPR) Method Description
Compound interaction was profiled using a Biacore 8K instrument (Cytiva). Biotinylated N-terminal avi-tagged Cdk2(2-298) or Cdk1(1-297) was immobilized on a series S sensor Chip SA at a capture level between 2500 RU and 3000 RU (Cdk2) or 7000 RU (Cdk1) in buffer (25 mM HEPES, 150 mM NaCl, 0.05% Tween20, pH 7.5). A compound dilution plate (8 concentrations, 3-fold dilution) in DMSO was prepared (100× assay concentration). From this plate, compound DMSO stock solution was transferred into buffer, yielding a final DMSO concentration of 1% in assay. The remaining buffer was supplemented with 1% DMSO. Compounds were injected in a series of increasing concentrations in multi-cycle kinetics (MCK, “M”) or single-cycle kinetics (SCK, “S”) mode at a flow rate of 30 μl/min for 120 sec and dissociation was profiled for 180 sec (MCK) or 1800 sec (SCK). Data were analysed using Biacore Insight Evaluation Software (Cytiva).

N[C@H]1CC[C@H](Nc2nccc(-c3cccnc3Oc3cc(Cl)c(NS(=O)(=O)c4ccccc4Cl)cc3F)n2)CC1 [Compound 414, N-[4-[(1r,4r)[3-[2-[(4-Aminocyclohexyl)amino]pyrimidin-4-yl]pyrid-2-yl]oxy]-6-chloro-3-fluorophenyl]2-chlorobenzenesulfonamide]
Kd: ≤ 10 nM

N[C@H]1CC[C@H](Nc2nccc(-c3cccnc3Oc3ccc(NS(=O)(=O)c4ccccc4Cl)cc3F)n2)CC1 [Compound 410, N-[4-[(1r,4r)[3-[2-[(4-Aminocyclohexyl)amino]pyrimidin-4-yl]pyrid-2-yl]oxy]-3-fluorophenyl]2-chlorobenzenesulfonamide]
Kd: ≤ 10 nM

N[C@H]1CC[C@H](Nc2nccc(-c3scnc3Oc3ccc(NS(=O)(=O)c4ccccc4Cl)cc3F)n2)CC1 [Compound 403, N-[4-[(1r,4r)[5-[2-[(4-Aminocyclohexyl)amino]pyrimidin-4-yl]thiazol-4-yl]oxy]-3-fluorophenyl]2-chlorobenzenesulfonamide]
Kd: ≤ 10 nM

N[C@H]1CC[C@H](Nc2nccc(-c3cccnc3Oc3ccc(NS(=O)(=O)c4cccc5ccccc45)cc3F)n2)CC1 [Compound 415, N-[4-[(1r,4r)[3-[2-[(4-Aminocyclohexyl)amino]pyrimidin-4-yl]pyrid-2-yl]oxy]-3-fluorophenyl]naphthalene-1-sulfonamide]
Kd: 11 to 100 nM

O=S(=O)(Nc1ccc(Oc2ncccc2-c2ccnc(N[C@H]3CCCNC3)n2)cc1)c1ccccc1Cl [Compound 412, N—((S)-4-((3-(2-(Piperidin-3-ylamino)pyrimidin-4-yl)pyridin-2-yl)oxy)phenyl) 2-chlorobenzenesulfonamide]
Kd: 11 to 100 nM

N[C@H]1CC[C@H](Nc2nccc(-c3nccnc3Oc3ccc(NS(=O)(=O)c4ccccc4Cl)cc3F)n2)CC1 [Compound 402, N-[4-[(1r,4r)[3-[2-[(4-Aminocyclohexyl)amino]pyrimidin-4-yl]pyrazin-2-yl]oxy]-3-fluorophenyl]2-chlorobenzenesulfonamide]
Kd: 100 to 1000 nM

O=S(=O)(Nc1ccc(Oc2ncsc2-c2ccnc(N[C@H]3CCCNC3)n2)c(F)c1)c1ccccc1Cl [Compound 391, N-[3-Fluoro-4-[[5-[2-[[(3S)-3-piperidinyl]amino]pyrimidin-4-yl]-4-thiazolyl]oxy]phenyl]2-chlorobenzenesulfonamide]
Kd: ≤ 10 nM

N[C@H]1CC[C@H](Nc2nccc(-c3cccnc3Oc3cc(Cl)c(NS(=O)(=O)c4cccc5ccccc45)cc3F)n2)CC1 [Compound 416, N-[4-[(1r,4r)[3-[2-[(4-Aminocyclohexyl)amino]pyrimidin-4-yl]pyrid-2-yl]oxy]-6-chloro-3-fluorophenyl]naphthalene-1-sulfonamide]
Kd: 11 to 100 nM

O=S(=O)(Nc1ccc(Oc2ncccc2-c2ccnc(N[C@H]3CCCNC3)n2)c(F)c1)c1ccccc1Cl [Compound 413, N—((S)-4-((3-(2-(piperidin-3-ylamino)pyrimidin-4-yl)pyridin-2-yl)oxy)-3-fluorophenyl) 2-chlorobenzenesulfonamide]
Kd: ≤ 10 nM

N[C@H]1CC[C@H](Nc2nccc(-c3cccnc3Oc3ccc(NS(=O)(=O)c4ccc5ccccc5c4)cc3F)n2)CC1 [Compound 417, N-[4-[(1r,4r)[3-[2-[(4-Aminocyclohexyl)amino]pyrimidin-4-yl]pyrid-2-yl]oxy]-3-fluorophenyl]naphthalene-2-sulfonamide]
Kd: 100 to 1000 nM

O=S(=O)(Nc1ccc(Oc2nccnc2-c2ccnc(N[C@H]3CCCNC3)n2)c(F)c1)c1ccccc1Cl [Compound 390, N-[3-Fluoro-4-[[3-[2-[[(3S)-3-piperidinyl]amino]pyrimidin-4-yl]-2-pyrazinyl]oxy]phenyl]2-chlorobenzenesulfonamide]
Kd: 11 to 100 nM

N[C@H]1CC[C@H](Nc2nccc(-c3cccnc3Oc3ccc(NS(=O)(=O)c4ccccc4Cl)cc3)n2)CC1 [Compound 411, N-[4-[(1r,4r)[3-[2-[(4-Aminocyclohexyl)amino]pyrimidin-4-yl]-2-pyridyl]oxy]phenyl]2-chlorobenzenesulfonamide]
Kd: 11 to 100 nM
